Read-outs that look alike come from different tables or passages of the source.
Columns and labels:
MOLT-4 = assay: NCI SRB cytotoxicity, leukemia MOLT-4; format: cell-based; details: Homo sapiens, 48 h exposure
Protocol: (§1) The pyrazolochalcones (7e, 8e, 10e, 11e, 12e, 13e and 8f) have been tested against fifty nine human tumor cell lines derived from nine cancer types (leukemia, non-small cell lung cancer, colon cancer, CNS cancer, melanoma, ovarian cancer, renal cancer, prostate cancer and breast cancer) as per the NCI protocol. For each compound, dose response curves for individual cell lines have been measured at a minimum of five concentrations at 10 fold dilutions. A protocol of 48 h continuous drug exposure has been used, and a sulforhodamine B (SRB) protein assay has been used to estimate cell viability or growth. The concentration for 50% cell growth inhibition (GI50), 50% cell death (LC50, 50% growth) and total cell growth inhibition (TGI, 0% growth) values were tabulated (Table-1). DMSO was used as control to calculate the values of GI50, LC50 and TGI. The compounds 7e, 8e, 10e, 11e, 12e, 13e and 8f has been evaluated for their in vitro cytotoxicity in […] cell lines from nine human cancer types of leukemia (K-562, SR), non-small cell lung (Hop-62, NCI-H226, NCI-H522), colon (HCT-116, HCT-15, HCC-2998), CNS (SF-539), melanoma (SK-MEL-5, UACC-62, M14), ovarian (IGROV1), renal (A498), prostate (PC3) and breast (BT-549, MDA-MB-435, HS578T) origin. The results are expressed as percent of cell growth determined relative to that of untreated control cells (Table 2).

RPMI-8226 = assay: NCI SRB cytotoxicity, leukemia RPMI-8226; format: cell-based; details: Homo sapiens, 48 h exposure
Protocol: as §1

A549/ATCC = assay: NCI SRB cytotoxicity, non-small cell lung A549/ATCC; format: cell-based; details: Homo sapiens, 48 h exposure
Protocol: as §1

HOP-62 = assay: NCI SRB cytotoxicity, non-small cell lung HOP-62; format: cell-based; details: Homo sapiens, 48 h exposure
Protocol: as §1

NCIH322M = assay: NCI SRB cytotoxicity, non-small cell lung NCIH322M; format: cell-based; details: Homo sapiens, NCI-H322M, 48 h exposure
Protocol: as §1

NCI-H522 = assay: NCI SRB cytotoxicity, non-small cell lung NCI-H522; format: cell-based; details: Homo sapiens, 48 h exposure
Protocol: as §1

COLO-205 = assay: NCI SRB cytotoxicity, colon COLO-205; format: cell-based; details: Homo sapiens, 48 h exposure
Protocol: as §1

HCC-2998 = assay: NCI SRB cytotoxicity, colon HCC-2998; format: cell-based; details: Homo sapiens, 48 h exposure
Protocol: as §1

HCT-116 = assay: NCI SRB cytotoxicity, colon HCT-116; format: cell-based; details: Homo sapiens, 48 h exposure
Protocol: as §1

HCT-15 = assay: NCI SRB cytotoxicity, colon HCT-15; format: cell-based; details: Homo sapiens, 48 h exposure
Protocol: as §1

HT29 = assay: NCI SRB cytotoxicity, colon HT29; format: cell-based; details: Homo sapiens, HT-29, 48 h exposure
Protocol: as §1

SW-620 = assay: NCI SRB cytotoxicity, colon SW-620; format: cell-based; details: Homo sapiens, 48 h exposure
Protocol: as §1

SF-268 = assay: NCI SRB cytotoxicity, CNS SF-268; format: cell-based; details: Homo sapiens, 48 h exposure
Protocol: as §1

SF-539 = assay: NCI SRB cytotoxicity, CNS SF-539; format: cell-based; details: Homo sapiens, 48 h exposure
Protocol: as §1

MDA-MB-435 [1] = assay: NCI SRB cytotoxicity, melanoma MDA-MB-435; format: cell-based; details: Homo sapiens, Melanoma panel MDA-MB-435, 48 h exposure
Protocol: as §1

SK-MEL-2 = assay: NCI SRB cytotoxicity, melanoma SK-MEL-2; format: cell-based; details: Homo sapiens, 48 h exposure
Protocol: as §1

UACC-62 = assay: NCI SRB cytotoxicity, melanoma UACC-62; format: cell-based; details: Homo sapiens, 48 h exposure
Protocol: as §1

OVCAR-3 = assay: NCI SRB cytotoxicity, ovarian OVCAR-3; format: cell-based; details: Homo sapiens, 48 h exposure
Protocol: as §1

OVCAR-8 = assay: NCI SRB cytotoxicity, ovarian OVCAR-8; format: cell-based; details: Homo sapiens, 48 h exposure
Protocol: as §1

NCI/ADR-RES = assay: NCI SRB cytotoxicity, ovarian NCI/ADR-RES; format: cell-based; details: Homo sapiens, 48 h exposure
Protocol: as §1

ACHN = assay: NCI SRB cytotoxicity, renal ACHN; format: cell-based; details: Homo sapiens, 48 h exposure
Protocol: as §1

CAKI-1 = assay: NCI SRB cytotoxicity, renal CAKI-1; format: cell-based; details: Homo sapiens, 48 h exposure
Protocol: as §1

TK-10 = assay: NCI SRB cytotoxicity, renal TK-10; format: cell-based; details: Homo sapiens, 48 h exposure
Protocol: as §1

PC-3 = assay: NCI SRB cytotoxicity, prostate PC-3; format: cell-based; details: Homo sapiens, 48 h exposure
Protocol: as §1

MDA-MB-231/ATCC = assay: NCI SRB cytotoxicity, breast MDA-MB-231/ATCC; format: cell-based; details: Homo sapiens, 48 h exposure
Protocol: as §1

HS 578T = assay: NCI SRB cytotoxicity, breast HS 578T; format: cell-based; details: Homo sapiens, 48 h exposure
Protocol: as §1

MDA-MB-435 [2] = assay: NCI SRB cytotoxicity, breast panel MDA-MB-435; format: cell-based; details: Homo sapiens, 48 h exposure
Protocol: as §1

Leukemia = assay: NCI SRB cytotoxicity, leukemia panel average; format: cell-based, human; details: average of cell lines
Protocol: as §1
(§2) Each cancer type represents the average of six to eight different cancer cell lines.

Colon = assay: NCI SRB cytotoxicity, colon panel average; format: cell-based, human; details: average of cell lines
Protocol: as §1, §2

CNS = assay: NCI SRB cytotoxicity, CNS panel average; format: cell-based, human; details: average of cell lines
Protocol: as §1, §2

Ovarian = assay: NCI SRB cytotoxicity, ovarian panel average; format: cell-based, human; details: average of cell lines
Protocol: as §1, §2

Prostate = assay: NCI SRB cytotoxicity, prostate panel average; format: cell-based, human; details: average of cell lines
Protocol: as §1, §2

Breast = assay: NCI SRB cytotoxicity, breast panel average; format: cell-based, human; details: average of cell lines
Protocol: as §1, §2

human tumor cell lines = assay: NCI SRB cytotoxicity, all fifty nine human tumor cell lines; format: cell-based; design: Log10 TGI mean graph midpoint (MG_MID): unit not given here; details: for GI50: Homo sapiens
Protocol: as §1
The mean graph midpoint values of Log10 TGI and Log10 LC50 as well as Log10 GI50 for compounds 7e, 8e, 10e, 11e, 12e, 13e and 8f is listed in Table-3. […] The mean graph mid points of Log10 TGI and Log10, LC50 have shown similar pattern to the log10 GI50 mean graph mid points.

[3] = Homo sapiens, read-out: Log10 GI50 (concentration in mol/L causing 50% growth inhibition) (converted)
[4] = Homo sapiens, read-out: Log10 LC50 (concentration in mol/L causing 50% cell death) (converted)

In the case of COc1cc(-c2cc(/C=C/C(=O)c3ccc(Cl)c(Cl)c3)[nH]n2)cc(OC)c1OC [12e, (E)-1-(3,4-dichlorophenyl)-3-(3-(3,4,5-trimethoxyphenyl)-1H-pyrazol-5-yl)prop-2-en-1-one], the GI50 (MOLT-4) is reported as 4.38 µM, the GI50 (RPMI-8226) is reported as 0.53 µM and the GI50 (A549/ATCC) is reported as 18.7 µM. For the same molecule, the GI50 (HOP-62) was 1.72 µM, the GI50 (NCIH322M) was 14.5 µM and the GI50 (NCI-H522) was 1.33 µM. The GI50 (COLO-205) was 1.26 µM, the GI50 (HCC-2998) was 9.56 µM and the GI50 (HCT-116) was 2.95 µM. It also gave a GI50 (HCT-15) of 4.29 µM, a GI50 (HT29) of 1.15 µM and a GI50 (SW-620) of 8.63 µM. For the same molecule, the GI50 (SF-268) was 13.7 µM, the GI50 (SF-539) was 4.31 µM and the GI50 (MDA-MB-435 [1]) was 5.65 µM. For the same molecule, the GI50 (SK-MEL-2) was 13.9 µM, the GI50 (UACC-62) was 18.8 µM and the GI50 (OVCAR-3) was 6.99 µM. The GI50 (OVCAR-8) was 6.3 µM, the GI50 (NCI/ADR-RES) was 10.6 µM and the GI50 (ACHN) was 21.4 µM. It also gave a GI50 (CAKI-1) of 16.9 µM, a GI50 (TK-10) of 8.34 µM and a GI50 (PC-3) of 5.95 µM. For the same molecule, the GI50 (MDA-MB-231/ATCC) was 8.65 µM, the GI50 (HS 578T) was 16.6 µM and the GI50 (MDA-MB-435 [2]) was 1.98 µM. The GI50 (Leukemia; [3]) was 2.09 µM, the CC50 (Leukemia; [4]) was 0.0001 mol/L and the “Log10 TGI (concentration in mol/L causing total growth inhibition (0% growth))” value (Leukemia) was −4.61 mol/L. For the same molecule, the GI50 (Colon; [3]) was 4.79 µM, the LC50 (Colon; [4]) was 0.0001 mol/L and the “Log10 TGI (concentration in mol/L causing total growth inhibition)” value (Colon) was −4.34 mol/L. For the same molecule, the GI50 (CNS; [3]) was 8.51 µM, the LC50 (CNS; [4]) was 87.1 µM and the “Log10 TGI (concentration in mol/L causing total growth inhibition (0% growth))” value (CNS) was −4.25 mol/L. For the same molecule, the GI50 (Ovarian; [3]) was 10 µM, the CC50 (Ovarian; [4]) was 95.5 µM and the “Log10 TGI (concentration in mol/L causing total growth inhibition (0% growth))” value (Ovarian) was −4.27 mol/L. For the same molecule, the GI50 (Prostate; [3]) was 5.89 µM, the CC50 (Prostate; [4]) was 0.0001 mol/L and the “Log10 TGI (concentration in mol/L causing total growth inhibition (0% growth))” value (Prostate) was −4.00 mol/L. For the same molecule, the GI50 (Breast; [3]) was 4.47 µM, the CC50 (Breast; [4]) was 0.0001 mol/L and the “Log10 TGI (concentration in mol/L causing total growth inhibition (0% growth))” value (Breast) was −4.41 mol/L. For the same molecule, the GI50 (human tumor cell lines; across fifty nine cell lines in nine cell panels, read-out: GI50 value range) was 0.18 to 29.2 µM, the GI50 (human tumor cell lines; against human tumor cell lines, read-out: Log10 GI50 mean graph midpoint (MG_MID) (converted)) was 6.61 µM and the cytotoxicity (human tumor cell lines; against cancer cell lines, in words) was “significant cytotoxicity”. The “Log10 TGI mean graph midpoint (MG_MID)” value (human tumor cell lines; against human tumor cell lines) was −4.35 and the LC50 (human tumor cell lines; against human tumor cell lines, read-out: Log10 LC50 mean graph midpoint (MG_MID) (converted)) was 89.1 µM.

From US9604933B2, “Pyrazolochalcones as potential anticancer agents” (COUNCIL OF SCIENTIFIC AND INDUSTRIAL RESEARCH, priority 2013, dated 2017)
